Test results as given in the NIST ThermoML archive (doi:10.1021/je050288d).
± gives the expanded uncertainty stated by the source.

Details: Gas

SMILES: O [water]
- viscosity (297.39 K, Mass density=0.0402 kg/m3): 0.009665 ± 9.5e-05 mPa·s
- viscosity (297.88 K, Mass density=0.0668 kg/m3): 0.009654 ± 9.5e-05 mPa·s
- viscosity (298.02 K, Mass density=0.0247 kg/m3): 0.009675 ± 9.5e-05 mPa·s
- viscosity (298.08 K, Mass density=0.0368 kg/m3): 0.009683 ± 9.5e-05 mPa·s
- viscosity (298.17 K, Mass density=0.1654 kg/m3): 0.009693 ± 9.5e-05 mPa·s
- viscosity (298.3 K, Mass density=0.0186 kg/m3): 0.0097 ± 9.5e-05 mPa·s
- viscosity (298.38 K, Mass density=0.1081 kg/m3): 0.009686 ± 9.5e-05 mPa·s
- viscosity (298.57 K, Mass density=0.1973 kg/m3): 0.009684 ± 9.5e-05 mPa·s
- viscosity (299.06 K, Mass density=0.0793 kg/m3): 0.009709 ± 9.5e-05 mPa·s
- viscosity (300.07 K, Mass density=0.2351 kg/m3): 0.009725 ± 9.5e-05 mPa·s
- viscosity (310.8 K, Mass density=0.0186 kg/m3): 0.01013 ± 9.8e-05 mPa·s
- viscosity (310.87 K, Mass density=0.0368 kg/m3): 0.01013 ± 9.8e-05 mPa·s
- viscosity (310.96 K, Mass density=0.0668 kg/m3): 0.01011 ± 9.8e-05 mPa·s
- viscosity (311.24 K, Mass density=0.1654 kg/m3): 0.01014 ± 9.8e-05 mPa·s
- viscosity (311.3 K, Mass density=0.0793 kg/m3): 0.01013 ± 9.8e-05 mPa·s
- viscosity (311.39 K, Mass density=0.1081 kg/m3): 0.01013 ± 9.8e-05 mPa·s
- viscosity (311.45 K, Mass density=0.0402 kg/m3): 0.01015 ± 9.8e-05 mPa·s
- viscosity (311.77 K, Mass density=0.0247 kg/m3): 0.01015 ± 9.8e-05 mPa·s
- viscosity (312.25 K, Mass density=0.2351 kg/m3): 0.01014 ± 9.8e-05 mPa·s
- viscosity (313.01 K, Mass density=0.1973 kg/m3): 0.01017 ± 9.8e-05 mPa·s
- viscosity (324.45 K, Mass density=0.0668 kg/m3): 0.01059 ± 0.0001 mPa·s
- viscosity (324.54 K, Mass density=0.0247 kg/m3): 0.0106 ± 0.0001 mPa·s
- viscosity (324.54 K, Mass density=0.1654 kg/m3): 0.0106 ± 0.0001 mPa·s
- viscosity (324.74 K, Mass density=0.2351 kg/m3): 0.01058 ± 0.0001 mPa·s
- viscosity (325 K, Mass density=0.0402 kg/m3): 0.01062 ± 0.0001 mPa·s
- viscosity (325.15 K, Mass density=0.1973 kg/m3): 0.01059 ± 0.0001 mPa·s
- viscosity (325.42 K, Mass density=0.1081 kg/m3): 0.01062 ± 0.0001 mPa·s
- viscosity (325.96 K, Mass density=0.0368 kg/m3): 0.01065 ± 0.0001 mPa·s
- viscosity (331.18 K, Mass density=0.0186 kg/m3): 0.01083 ± 0.0001 mPa·s
- viscosity (331.47 K, Mass density=0.0793 kg/m3): 0.01084 ± 0.0001 mPa·s
- viscosity (338.02 K, Mass density=0.1973 kg/m3): 0.01103 ± 0.0001 mPa·s
- viscosity (338.38 K, Mass density=0.2351 kg/m3): 0.01105 ± 0.0001 mPa·s
- viscosity (338.47 K, Mass density=0.0247 kg/m3): 0.01108 ± 0.0001 mPa·s
- viscosity (338.71 K, Mass density=0.0368 kg/m3): 0.0111 ± 0.0001 mPa·s
- viscosity (338.79 K, Mass density=0.0793 kg/m3): 0.01108 ± 0.0001 mPa·s
- viscosity (338.83 K, Mass density=0.0186 kg/m3): 0.01111 ± 0.0001 mPa·s
- viscosity (339.39 K, Mass density=0.0402 kg/m3): 0.01112 ± 0.0001 mPa·s
- viscosity (340.17 K, Mass density=0.1081 kg/m3): 0.01113 ± 0.0001 mPa·s
- viscosity (341.28 K, Mass density=0.0668 kg/m3): 0.01117 ± 0.0001 mPa·s
- viscosity (352.03 K, Mass density=0.1973 kg/m3): 0.01153 ± 0.00011 mPa·s
- viscosity (352.05 K, Mass density=0.1654 kg/m3): 0.01154 ± 0.00011 mPa·s
- viscosity (352.17 K, Mass density=0.0668 kg/m3): 0.01156 ± 0.00011 mPa·s
- viscosity (352.37 K, Mass density=0.2351 kg/m3): 0.01154 ± 0.00011 mPa·s
- viscosity (352.75 K, Mass density=0.0186 kg/m3): 0.0116 ± 0.00011 mPa·s
- viscosity (352.77 K, Mass density=0.0402 kg/m3): 0.0116 ± 0.00011 mPa·s
- viscosity (352.79 K, Mass density=0.0793 kg/m3): 0.01159 ± 0.00011 mPa·s
- viscosity (352.91 K, Mass density=0.0247 kg/m3): 0.0116 ± 0.00011 mPa·s
- viscosity (353.16 K, Mass density=0.1081 kg/m3): 0.0116 ± 0.00011 mPa·s
- viscosity (353.6 K, Mass density=0.0368 kg/m3): 0.01163 ± 0.00011 mPa·s
- viscosity (365.86 K, Mass density=0.2351 kg/m3): 0.01203 ± 0.00011 mPa·s
- viscosity (366.29 K, Mass density=0.1973 kg/m3): 0.01205 ± 0.00011 mPa·s
- viscosity (366.37 K, Mass density=0.0247 kg/m3): 0.01209 ± 0.00011 mPa·s
- viscosity (366.48 K, Mass density=0.1654 kg/m3): 0.01207 ± 0.00011 mPa·s
- viscosity (366.77 K, Mass density=0.1081 kg/m3): 0.01209 ± 0.00011 mPa·s
- viscosity (366.96 K, Mass density=0.0793 kg/m3): 0.01211 ± 0.00011 mPa·s
- viscosity (367.03 K, Mass density=0.0402 kg/m3): 0.01212 ± 0.00011 mPa·s
- viscosity (367.1 K, Mass density=0.0668 kg/m3): 0.0121 ± 0.00011 mPa·s
- viscosity (367.84 K, Mass density=0.0186 kg/m3): 0.01216 ± 0.00011 mPa·s
- viscosity (368.22 K, Mass density=0.0368 kg/m3): 0.01216 ± 0.00011 mPa·s
- viscosity (380.42 K, Mass density=0.0247 kg/m3): 0.0126 ± 0.00011 mPa·s
- viscosity (380.43 K, Mass density=0.1973 kg/m3): 0.01257 ± 0.00011 mPa·s
- viscosity (380.59 K, Mass density=0.0668 kg/m3): 0.01259 ± 0.00011 mPa·s
- viscosity (380.6 K, Mass density=0.1654 kg/m3): 0.01258 ± 0.00011 mPa·s
- viscosity (380.8 K, Mass density=0.0186 kg/m3): 0.01263 ± 0.00011 mPa·s
- viscosity (381.09 K, Mass density=0.0402 kg/m3): 0.01263 ± 0.00011 mPa·s
- viscosity (381.09 K, Mass density=0.0793 kg/m3): 0.01263 ± 0.00011 mPa·s
- viscosity (381.33 K, Mass density=0.1081 kg/m3): 0.01263 ± 0.00011 mPa·s
- viscosity (381.7 K, Mass density=0.2351 kg/m3): 0.01262 ± 0.00011 mPa·s
- viscosity (382.14 K, Mass density=0.0368 kg/m3): 0.01268 ± 0.00011 mPa·s
- viscosity (393.95 K, Mass density=0.1654 kg/m3): 0.01309 ± 0.00012 mPa·s
- viscosity (394.29 K, Mass density=0.0668 kg/m3): 0.0131 ± 0.00012 mPa·s
- viscosity (394.39 K, Mass density=0.0186 kg/m3): 0.01314 ± 0.00012 mPa·s
- viscosity (394.43 K, Mass density=0.1973 kg/m3): 0.0131 ± 0.00012 mPa·s
- viscosity (394.48 K, Mass density=0.2351 kg/m3): 0.01311 ± 0.00012 mPa·s
- viscosity (394.72 K, Mass density=0.0247 kg/m3): 0.01313 ± 0.00012 mPa·s
- viscosity (395 K, Mass density=0.1081 kg/m3): 0.01314 ± 0.00012 mPa·s
- viscosity (395.38 K, Mass density=0.0402 kg/m3): 0.01316 ± 0.00012 mPa·s
- viscosity (395.87 K, Mass density=0.0793 kg/m3): 0.01319 ± 0.00012 mPa·s
- viscosity (396.61 K, Mass density=0.0368 kg/m3): 0.01322 ± 0.00012 mPa·s
- viscosity (408.3 K, Mass density=0.1654 kg/m3): 0.01365 ± 0.00012 mPa·s
- viscosity (408.32 K, Mass density=0.0668 kg/m3): 0.01364 ± 0.00012 mPa·s
- viscosity (408.34 K, Mass density=0.2351 kg/m3): 0.01365 ± 0.00012 mPa·s
- viscosity (408.76 K, Mass density=0.1973 kg/m3): 0.01366 ± 0.00012 mPa·s
- viscosity (408.87 K, Mass density=0.0186 kg/m3): 0.01369 ± 0.00012 mPa·s
- viscosity (409.37 K, Mass density=0.1081 kg/m3): 0.01369 ± 0.00012 mPa·s
- viscosity (409.39 K, Mass density=0.0793 kg/m3): 0.0137 ± 0.00012 mPa·s
- viscosity (409.46 K, Mass density=0.0402 kg/m3): 0.01369 ± 0.00012 mPa·s
- viscosity (409.76 K, Mass density=0.0247 kg/m3): 0.01371 ± 0.00012 mPa·s
- viscosity (411.18 K, Mass density=0.0368 kg/m3): 0.01379 ± 0.00012 mPa·s
- viscosity (422.56 K, Mass density=0.2351 kg/m3): 0.01421 ± 0.00012 mPa·s
- viscosity (422.69 K, Mass density=0.1654 kg/m3): 0.01422 ± 0.00012 mPa·s
- viscosity (422.72 K, Mass density=0.0668 kg/m3): 0.0142 ± 0.00012 mPa·s
- viscosity (422.75 K, Mass density=0.0247 kg/m3): 0.01422 ± 0.00012 mPa·s
- viscosity (422.94 K, Mass density=0.1973 kg/m3): 0.01422 ± 0.00012 mPa·s
- viscosity (423.26 K, Mass density=0.0186 kg/m3): 0.01424 ± 0.00012 mPa·s
- viscosity (423.44 K, Mass density=0.0793 kg/m3): 0.01425 ± 0.00012 mPa·s
- viscosity (423.62 K, Mass density=0.1081 kg/m3): 0.01425 ± 0.00012 mPa·s
- viscosity (423.7 K, Mass density=0.0402 kg/m3): 0.01426 ± 0.00012 mPa·s
- viscosity (423.8 K, Mass density=0.0368 kg/m3): 0.01428 ± 0.00012 mPa·s
- viscosity (437.27 K, Mass density=0.2351 kg/m3): 0.01482 ± 0.00013 mPa·s
- viscosity (437.71 K, Mass density=0.1654 kg/m3): 0.01483 ± 0.00013 mPa·s
- viscosity (437.84 K, Mass density=0.1973 kg/m3): 0.01484 ± 0.00013 mPa·s
- viscosity (438.04 K, Mass density=0.0668 kg/m3): 0.01481 ± 0.00013 mPa·s
- viscosity (438.05 K, Mass density=0.1081 kg/m3): 0.01483 ± 0.00013 mPa·s
- viscosity (438.48 K, Mass density=0.0368 kg/m3): 0.01487 ± 0.00013 mPa·s
- viscosity (438.71 K, Mass density=0.0793 kg/m3): 0.01486 ± 0.00013 mPa·s
- viscosity (438.77 K, Mass density=0.0186 kg/m3): 0.01485 ± 0.00013 mPa·s
- viscosity (438.99 K, Mass density=0.0402 kg/m3): 0.01486 ± 0.00013 mPa·s
- viscosity (440.41 K, Mass density=0.0247 kg/m3): 0.01492 ± 0.00013 mPa·s
